In patent US5843735A, “Aklavinone C-11 hydroxylase, gene coding for same, expression vector therefor, and process for preparing hybrid antibiotics by using said vector” (priority 1995, dated 1998):
Read-outs that look alike come from different tables or passages of the source.

Assays:
UO-31 = assay: Anticancer activity, reduced human cancer cell line panel (NCI method), Renal Cancer; assay type: cell-based; details: UO-31, read-out: Log10 LC50 (converted)
Procedure: (§1) The anticancer activities of aclacinomycin X, 11-hydroxy aclacinomycin X and 11-hydroxy aclacinomycin A were determined by using a reduced human cancer cell line panel(supplier: National Cancer Institute, U.S.A.) in accordance with the method of National Cancer Institute, U.S.A. (Monks, A., et al., J. Natl. Cancer Inst., 83, 757-766(1991)), and the results are shown in Table I.

786-0 = assay: as above; assay type: cell-based; details: 786-0, read-out: Log10 LC50 (converted)
Procedure: as §1

human cancer cell lines = assay: Anticancer / growth inhibiting activity against the human cancer cell line panel, overall; assay type: cell-based; details: for growth inhibiting activities compared with aclacinomycin A: various human cancer cell lines
Procedure: as §1

[1] = Solubility in organic solvents; details: methanol (MeOH), chloroform (CHCl3)
EKVX = assay: Anticancer activity, reduced human cancer cell line panel (NCI method), Non-Small Cell Lung Cancer; assay type: cell-based; details: read-out: Log10 LC50 (converted)
Procedure: as §1

A-549 = assay: as above; assay type: cell-based
Procedure: as §1

HT29 = assay: Anticancer activity, reduced human cancer cell line panel (NCI method), Colon Cancer; assay type: cell-based
Procedure: as §1

HCC-2298 = assay: as above; assay type: cell-based
Procedure: as §1

MCF7 = assay: Anticancer activity, reduced human cancer cell line panel (NCI method), Breast Cancer; assay type: cell-based; details: MCF7, read-out: Log10 LC50 (converted)
Procedure: as §1

MDA-N = assay: as above; assay type: cell-based; details: read-out: Log10 LC50 (converted)
Procedure: as §1

HL-60 TB = assay: Anticancer activity, reduced human cancer cell line panel (NCI method), Leukemia; assay type: cell-based; details: for LC50 (50% lethal concentration): Leukemia, HL-60 TB, read-out: Log10 LC50 (converted)
Procedure: as §1

K-562 = assay: as above; assay type: cell-based
Procedure: as §1

U251 = assay: Anticancer activity, reduced human cancer cell line panel (NCI method), CNS Cancer; assay type: cell-based
Procedure: as §1

SF-268 = assay: as above; assay type: cell-based; details: SF-268, read-out: Log10 LC50 (converted)
Procedure: as §1

SK-OV-3 = assay: Anticancer activity, reduced human cancer cell line panel (NCI method), Ovarian Cancer; assay type: cell-based; details: SK-OV-3, read-out: Log10 LC50 (converted)
Procedure: as §1

OVCAR-3 = assay: as above; assay type: cell-based; details: OVCAR-3, read-out: Log10 LC50 (converted)
Procedure: as §1

MALME-3M = assay: Anticancer activity, reduced human cancer cell line panel (NCI method), Melanoma; assay type: cell-based; details: read-out: Log10 LC50 (converted)
Procedure: as §1

SK-MEL-2 = assay: as above; assay type: cell-based; details: SK-MEL-2, read-out: Log10 LC50 (converted)
Procedure: as §1

DU-145 = assay: Anticancer activity, reduced human cancer cell line panel (NCI method), Prostate Cancer; assay type: cell-based; details: DU-145, read-out: Log10 LC50 (converted)
Procedure: as §1

PC-3 = assay: as above; assay type: cell-based; details: PC-3, read-out: Log10 LC50 (converted)
Procedure: as §1

[2] = A549, Non-Small Cell Lung Cancer, A-549, read-out: Log10 LC50 (converted)
[3] = HT-29, Colon Cancer, HT29, read-out: Log10 LC50 (converted)
[4] = K562, Leukemia, K-562, read-out: Log10 LC50 (converted)
[5] = U-251, CNS Cancer, U251, read-out: Log10 LC50 (converted)

Row | Compound | growth inhibiting activities compared with aclacinomycin A (human cancer cell lines) | dissolves easily (solubility) [1] | CC50 (UO-31; Renal Cancer) [µM] | LC50 (50% lethal concentration) (786-0; Renal Cancer) [µM] | CC50 (EKVX; Non-Small Cell Lung Cancer) [µM] | LC50 (A-549; [2]) [µM] | CC50 (HT29; [3]) [µM] | LC50 (50% lethal concentration) (MCF7; Breast Cancer) [µM] | CC50 (MDA-N; Breast Cancer) [µM] | LC50 (50% lethal concentration) (HL-60 TB) [µM] | CC50 (K-562; [4]) [µM] | CC50 (U251; [5]) [µM] | CC50 (SF-268; CNS Cancer) [µM] | CC50 (OVCAR-3; Ovarian Cancer) [µM] | LC50 (concentration killing 50% of cells) (MALME-3M; Melanoma, MALME-3M) [µM] | CC50 (SK-MEL-2; Melanoma) [µM] | LC50 (DU-145; Prostate Cancer) [µM] | LC50 (PC-3; Prostate Cancer) [µM] | further results
1 | CC[C@@]1(O)C[C@H](O[C@H]2C[C@H](N(C)C)[C@H](O[C@H]3C[C@H](O)[C@H](O[C@H]4CCC(=O)[C@H](C)O4)[C@H](C)O3)[C@H](C)O2)c2c(O)c3c(c(O)c2[C@H]1C(=O)OC)C(=O)c1cccc(O)c1C3=O [11-Hydroxy aclacinomycin A, 11-hydroxy aclacinomycin A] | higher growth inhibiting activities than aclacinomycin A | dissolves easily in MeOH or CHCL3 | – | – | – | – | – | – | – | – | – | – | – | – | – | – | – | – | CC50 (UO-31): 19.1 µM; LC50 (50% lethal concentration) (786-0): 8.32 µM; anticancer activity (human cancer cell lines; leukemia, colon cancer and melanoma cell lines): high anticancer activity; CC50 (EKVX): 0.257 µM; LC50 (A-549; A549, read-out: Log10 LC50 (converted)): 24.5 µM; CC50 (HT29; HT-29, read-out: Log10 LC50 (converted)): 12.9 µM; CC50 (HCC-2298; read-out: Log10 LC50 (converted)): < 0.01 µM; LC50 (50% lethal concentration) (MCF7): 25.1 µM; CC50 (MDA-N): 100 µM; CC50 (HL-60 TB; HL-60, read-out: Log10 LC50 (converted)): < 0.01 µM; CC50 (K-562; K562, read-out: Log10 LC50 (converted)): 1.78 µM; CC50 (U251; U-251, read-out: Log10 LC50 (converted)): 56.2 µM; CC50 (SF-268): 79.4 µM; CC50 (SK-OV-3): 38.9 µM; CC50 (OVCAR-3): 72.4 µM; LC50 (concentration killing 50% of cells) (MALME-3M; Malme-3M): 0.0676 µM; CC50 (SK-MEL-2): < 0.01 µM; LC50 (DU-145): 24.5 µM; LC50 (PC-3): 14.5 µM
2 | CC[C@@]1(O)C[C@H](O[C@H]2C[C@H](N(C)C)[C@H](O)[C@H](C)O2)c2c(O)c3c(c(O)c2[C@H]1C(=O)OC)C(=O)c1cccc(O)c1C3=O [11-Hydroxy aclacinomycin T, 11-hydroxy aclacinomycin T] | – | dissolves easily in MeOH or CHC13 | – | – | – | – | – | – | – | – | – | – | – | – | – | – | – | – | –
3 | CC[C@@]1(O)C[C@H](O[C@H]2C[C@H](N(C)C)[C@H](O[C@H]3C[C@H](O)[C@H](O[C@@H]4O[C@@H](C)C(=O)C=C4N)[C@H](C)O3)[C@H](C)O2)c2c(O)c3c(c(O)c2[C@H]1C(=O)OC)C(=O)c1cccc(O)c1C3=O [11-Hydroxy aclacinomycin X, 11-hydroxy aclacinomycin X] | higher growth inhibiting activities than aclacinomycin A | dissolves easily in MeOH or CHCl3 | 15.5 | 4.57 | 0.977 | 21.4 | 47.9 | 30.9 | > 100 | 0.234 | 7.59 | > 100 | > 100 | > 100 | 0.0537 | < 0.01 | 41.7 | 6.76 | anticancer activities compared with aclacinomycin X (human cancer cell lines; leukemia, melanoma and breast cancer cell lines): higher than aclacinomycin X
4 | CC[C@@]1(O)C[C@H](O[C@H]2C[C@H](N(C)C)[C@H](O[C@H]3C[C@@H]4OC5CC(=O)C(C)OC5O[C@@H]4[C@H](C)O3)[C@H](C)O2)c2c(O)c3c(c(O)c2[C@H]1C(=O)OC)C(=O)c1cccc(O)c1C3=O (stereo partly drawn) [11-hydroxy aclacinomycin B] | – | dissolves easily in MeOH and CHC13 | – | – | – | – | – | – | – | – | – | – | – | – | – | – | – | – | –
5 | CC[C@@]1(O)C[C@H](O[C@H]2C[C@H](N(C)C)[C@H](O[C@H]3C[C@H](O)[C@H](O[C@@H]4O[C@@H](C)C(=O)C=C4N)[C@H](C)O3)[C@H](C)O2)c2c(cc3c(c2O)C(=O)c2c(O)cccc2C3=O)[C@H]1C(=O)OC [Aclacinomycin X, aclacinomycin X] | higher growth inhibiting activities than aclacinomycin A | dissolves easily in methanol or chloroform | 26.3 | 18.2 | 18.6 | 4.07 | 30.9 | 43.7 | > 100 | 30.9 | 60.3 | 18.2 | 11.2 | > 100 | 0.562 | 0.0525 | 30.2 | 8.32 | selective anticancer activities (human cancer cell lines; colon cancer, melanoma and breast cancer cell lines): selective anticancer activities against colon cancer, melanoma and breast cancer cell lines; CC50 (HCC-2298; Colon Cancer, HCC-2298, read-out: Log10 LC50 (converted)): 0.191 µM; CC50 (SK-OV-3; Ovarian Cancer): > 100 µM
